Here are results for one compound from publication PMC7466040, “Sevanol and Its Analogues: Chemical Synthesis, Biological Effects and Molecular Docking” (Pharmaceuticals, 2020).

Test [1] deals with ICR male mice. As to the kind of experiment: Abdominal constriction test of visceral pain (acetic acid-induced writhing). Type of test: in vivo. Here is the method:
Specific pathogen-free outbred ICR male mice (6 to 8 weeks old, weighing 29 to 33 g) were obtained from the Animal Breeding Facility of the Branch of the Shemyakin-Ovchinnikov Institute of Bioorganic Chemistry of the Russian Academy of Sciences (Pushchino). The animals were acclimatized for 2 weeks before the experimental procedures, and were kept in two-corridor barrier rooms under a controlled environment: a temperature of 20 to 24 °C, a relative humidity of 30% to 60%, and a 12 h light cycle. The animals were housed in Type 3 standard polycarbonate cages (820 cm2) on bedding (LIGNOCEL BK 8/15, JRS, Germany), with ad libitum access to feed (SSNIFF V1534-300, Spezialdiaeten, GmbH) and filtered tap water. The mouse cages were also supplied with material for environmental enrichment, i.e., Mouse House (Techniplast, Italy). Sevanol or the vehicle was administered intravenously, intranasally and orally (30 min before testing).
The mice were divided into separate groups, and sevanol or saline was administrated (30 min before testing) as described above. Acetic acid in saline (0.6%, 10 mL/kg) was injected intraperitoneally. The mice were moved into transparent glass cylinders, and the number of writhes was registered for 15 min.
Figure 5 The analgesic and anti-inflammatory effects of sevanol following intravenous, intranasal and per os administration. The effect of sevanol on the acetic acid induced writhing (A–C) and on the mice withdrawal latency on a hot plate in the thermal hyperalgesia test after CFA injection (D–F) upon intravenous (A,D), intranasal (B,E) and oral (C,F) administration. […] The results are presented as the mean ± SD (n = 6–10). The p-values of the sevanol groups vs. the saline group are based on an analysis of variance and on Tukey’s test; * p < 0.05, ** p < 0.005, *** p < 0.001.
A general note: Writhing tests count abdominal constrictions after an irritant is injected.

In test [2] the target is T1, rat ASIC3 (Rattus norvegicus, UniProt O35240).
T1 construct: expressed in transfected cells; host or cells: Xenopus laevis oocytes (cRNA injection)
T1 sequence (O35240 1-533): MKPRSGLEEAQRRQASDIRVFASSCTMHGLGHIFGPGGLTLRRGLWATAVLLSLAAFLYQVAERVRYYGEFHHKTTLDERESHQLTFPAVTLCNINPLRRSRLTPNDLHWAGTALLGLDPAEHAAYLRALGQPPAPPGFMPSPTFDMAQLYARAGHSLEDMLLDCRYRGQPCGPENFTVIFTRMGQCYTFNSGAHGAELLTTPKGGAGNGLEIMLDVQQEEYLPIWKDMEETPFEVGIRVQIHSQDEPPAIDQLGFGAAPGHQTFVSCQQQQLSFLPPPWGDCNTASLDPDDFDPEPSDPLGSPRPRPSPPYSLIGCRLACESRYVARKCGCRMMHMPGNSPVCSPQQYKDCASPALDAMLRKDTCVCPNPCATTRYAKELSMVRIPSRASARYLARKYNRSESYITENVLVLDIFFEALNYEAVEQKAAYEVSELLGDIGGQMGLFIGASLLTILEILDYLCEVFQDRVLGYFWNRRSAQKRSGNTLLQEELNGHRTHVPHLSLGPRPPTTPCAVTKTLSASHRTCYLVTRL
As to the kind of experiment: Two-electrode voltage clamp on X. laevis oocytes expressing rat ASIC3. Type of test: cell-based. On the procedure:
Testing the activity of synthetic sevanol (s706) (as a mixture of 75% of sevanol and 25% of isosevanol) and its analogues (s590, EA, and s788) was carried out by the standard two-electrode voltage clamp method on X. laevis oocytes expressing rat ASIC1a and ASIC3 channels. The activation of the channels was performed using a rapid change of the solution from conditioning pH 7.4 to a solution with pH 5.5. Sevanol and its two analogues, s590 and EA, inhibited ASIC1a and ASIC3 channels.
Oocytes were harvested from female frogs anaesthetized with tricaine methane sulfonate (MS222) (0.17% solution), and the surgery was performed in an ice bath to avoid heavy bleeding. Defolliculated stage IV and V cells were injected with 2.5 and 10 ng cRNA, synthesized from PCi plasmids containing the rat ASIC1a and rat ASIC3 isoforms, respectively, using the Nanoliter 2000 microinjection system (World Precision Instruments, USA). The injected oocytes were kept for 2–3 days at 17 to 19 °C, and then for up to 5 days at 15 °C in a ND96 medium containing (in mM) 96 NaCl, 2 KCl, 1.8 CaCl2, 1 MgCl2, and 5 HEPES titrated to pH 7.4 with NaOH supplemented with gentamycin (50 μg/mL). Two-electrode voltage clamp recordings were performed at a holding potential of −50 mV using a GeneClamp 500 amplifier (Axon Instruments), and the data were filtered at 20 Hz and digitized at 100 Hz by an AD converter L780 (LCard, Russia). Microelectrodes were filled with 3 M KCl. The conditioning bath solution was ND96; the pH was adjusted to 7.4. The activating test solution was constructed based on the ND-96 buffer, in which 5 mM HEPES was replaced with 10 mM MES and pH was adjusted to 5.5. A computer-controlled valve system was used to achieve a rapid solution exchange in the recording chamber. A four parameter logistic equation was used for the curve-fitting analysis: F(x) = ((a1 − a2)/(1 + (x/x0)n)) + a2, where x is the concentration of the compound; F(x) is the response value at a given concentration of the compound; a1 is the control response value (fixed at 100%); x0 is the IC50 value; n is the Hill coefficient (slope factor); and a2 is the response value at the maximal inhibition (% of control).
Figure 2 The inhibitory activity of sevanol (s706) and its analogues. Currents were elicited by a drop from pH 7.4 to 5.5; the holding potential was −50 mV; (A,C) are dose–response curves for s706, s590 and EA inhibitory effects on ASIC1a and ASIC3 channels, respectively; (B,D) are reciprocal IC50 values for s706, s590 and EA inhibitory effects on ASIC1a and ASIC3 channels, respectively. The data were fitted by the logistic equation. Each point is the mean ± SEM of 5–6 measurements. * p < 0.05, ** p < 0.005.
On the technique in general: In two-electrode clamp one electrode senses voltage and the other passes current.

Test [3] deals with mice. More on the design: method as in PMID 30545037. The note with it: parenteral, 0.01–10 mg/kg; cited from earlier work.

The structures appear in SMILES notation.

For `O=C(O)CC(C(=O)O)C(OC(=O)C1=Cc2cc(O)c(O)cc2C(c2ccc(O)c(O)c2)C1C(=O)OC(C(=O)O)C(CC(=O)O)C(=O)O)C(=O)O` (centres unmarked) [sevanol], the “reduction of the number of writhes, i.n.” value in test [1] (intranasal, 1 mg/kg) is “more than 50%”. Besides, in test [1] (intranasal, 30 min before acetic acid), the “dose producing statistically significant reduction of writhes, i.n.” value is given as “higher than 0.1 mg/kg”. Also, in test [1] (intravenous, 1 mg/kg), the “reduction of the number of writhes, i.v.” value is reported as “more than 50%”. Also, in test [1] (intravenous, 30 min before acetic acid), the “dose producing statistically significant reduction of writhes, i.v.” value is recorded as “higher than 0.1 mg/kg”. The “reduction of the number of writhes, p.o.” value in test [1] (oral, 1 mg/kg) is listed as “more than 50%”. The “dose from which effective in reducing writhes, p.o.” value in test [1] (oral, 30 min before acetic acid) was at least 0.01 mg/kg. The “enhancement of analgesic and anti-inflammatory effect by oral administration versus other routes” value in test [1] (p.o. vs i.v./i.n., both tests) is given as 10 fold. Further, the concentration for half-maximal inhibition (IC50) – broadly, the midpoint of a concentration-inhibition curve – in test [2] (X. laevis oocytes, pH drop 7.4 to 5.5, holding potential −50 mV, mean ± SEM of 5–6, read-out: IC50, inhibition of ASIC3 current) came out at 175 ± 18 µM. In test [2] (pH 7.4 to 5.5, effect reversible), the “maximal current block, ASIC3” value is recorded as 100%. For the same compound, in test [2] (ratio of ASIC1a and ASIC3 inhibition), the “effectiveness in inhibiting ASIC3 relative to ASIC1a” value was found to be 1.3 times. The “effect on CFA-induced thermal hyperalgesia” value in test [3] was “significantly reversed”.
